Target: T1, GCase (Cerezyme) (Homo sapiens, UniProt P04062, R534H)
T1 sequence (P04062 40-536 R534H): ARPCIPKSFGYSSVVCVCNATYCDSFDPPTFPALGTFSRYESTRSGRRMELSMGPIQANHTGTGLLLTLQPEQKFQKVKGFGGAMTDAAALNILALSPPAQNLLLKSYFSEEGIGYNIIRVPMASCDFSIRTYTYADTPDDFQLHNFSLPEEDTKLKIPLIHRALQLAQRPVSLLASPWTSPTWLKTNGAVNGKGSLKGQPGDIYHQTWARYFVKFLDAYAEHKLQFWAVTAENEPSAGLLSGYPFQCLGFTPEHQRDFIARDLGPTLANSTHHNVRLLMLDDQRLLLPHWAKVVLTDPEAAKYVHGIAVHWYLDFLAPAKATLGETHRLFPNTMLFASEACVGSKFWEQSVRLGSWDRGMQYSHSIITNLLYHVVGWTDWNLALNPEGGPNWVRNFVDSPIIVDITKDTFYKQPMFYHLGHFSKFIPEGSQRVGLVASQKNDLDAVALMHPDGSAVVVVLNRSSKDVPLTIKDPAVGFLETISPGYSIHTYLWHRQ
Experiment: SPR, immobilized GCase on CM5 chip
Type: binding
Details: pH […] HEPES, […] EDTA, […] NaCl, […] Tween-20; no IFG; allosteric

Row | Kd | Substance
1 | 17 to 24 µM | GT-02287
2 | > 90 µM | GT-02329

From paper doi:10.1101/2024.11.15.623779v1 (biorxiv, 2024)
